Like-named read-outs stand apart in the source and are kept apart here.
Columns and labels:
[1] = Solubility determinations in SIF buffers (FaSSIF, FeSSIF, FaSSGF); type: physicochemical; settings: for XRPD (dried) / XRPD (wet): solid residue
Method: At this stage ca. 1 g of each front-runner salt form was prepared. Salt forms that offered significant solubility and stability advantages over the non-ionized API were prioritized. […] Scale Up
The solubility of the salts below was determined in FaSSIF, FeSSIF and FaSSGF by reference to the calibration curve of amorphous compound 1.
Separate portions of compound 1 were weighed out into aluminum boats and were charged to the relevant volumetric flasks. Solutions were made to volume with 1 to 1 (v/v) acetonitrile/purified water to give calibrants of known API concentrations and analyzed by HPLC, suitable to determine the concentration of compound 1 free base in the SIF buffer solubility study.
Each sample (150 mg) was suspended in the relevant SIF buffer (5.0 ml), to give a concentration of 30 mg/ml and maintain at 37° C. for 24 h. The pH was adjusted using 1 M HCl or 1 M NaOH, to ensure that the suspension remains in range.
Sample (1 ml) of the well-stirred representative suspensions was obtained at 1 h, 3 h, 6 h and 24 h and the pH was recorded. The pH of the bulk suspension was re-adjusted when necessary. The obtained sample from each vial was centrifuged, and the supernatant was analysed by HPLC (note, the analyte was diluted, when outside of the calibration range); XRPD analysis was performed on the wet sample pellet for evidence of form change, as well as on the oven-dried pellet (undervacuum at 40° C.).

[2] = Dynamic vapor sorption (DVS); type: physicochemical
Method: There are two main methods to use, one is by time where the equilibration is given by a fixed time, i.e., 1 hour per step and is appropriate for an unknown phase. The second, is by mass per time unit (dm/dt) of 0.002%/min; that is when the difference in weight is less than 0.002%, the instrument moves onto the next step. For unknown hygroscopicity, the method by time is indicated because it gives an idea of water affinity without wasting much time. Ideally the analyses are repeated using the mass equilibration method to confirm. By experience for hygroscopic samples, the analysis can continue for days. For non-hygroscopic samples the difference between the two methods may not be significant.
Consequently, amorphous batch 1 was analyzed by the fixed time method and once compound 1 fumarate crystalline polymorphic Form A was generated the analyses was repeated as mass per unit time equilibrated @dm/dt ([…]) and is given below (refer to FIG. 12).
(§1) The moisture sorption properties of the feed API were analysed by DVS Intrinsic instrument (Surface Measurement System). Approximately 20 to 50 mg of API was weighed onto an aluminium pan and loaded into the instrument equilibrated at 25° C. The sample was equilibrated under a dry atmosphere (0% relative humidity) for 60 minutes, before increasing the humidity from 0% to 30% at 5%4 step increment and from 30% to 90% at 10% step increment. A desorption cycle was also applied from 90% to 30% (10% step decrement) and from 30% to 0% (5% step decrement). A rate of change in mass per time unit (dm/dt) of 0.002%/min was set as the equilibrium parameter. Kinetic and isotherm graphs were calculated.
Specimens were equilibrated at 0% RH for 60 min, prior to DVS analyses (stepped increment % RH up to 90% RH and stepped decrement % RH down to 0% RH.
as §1, with “5%” for “5%4”

[3] = type: physicochemical
Method: Equilibrium Humidity Evaluation (40° C./75% RH for 10 Days)
100 mg portions of compound 1 salts (for inputs see table below) were placed in the relevant open vials. The powders were finely divided and distributed evenly over the base of the vial, such that equal material coverage across the panel was observed. These samples were then maintained 40°C. under 75% RH. The samples were sub-sampled at intervals of 5 and 10 days and analysed by ^1H NMR, HPLC, XRPD, DSC, TGA and PLM, for evidence of phase change or chemical degradation (FIG. 269-297).

[4] = FaSSGF (ph 1.6), t = 1 h@37° C.
[5] = FaSSGF (ph 1.6), t = 3 h@37° C.
[6] = FaSSGF (ph 1.6), t = 6 h@37° C.
[7] = FaSSGF (ph 1.6), t = 24 h @37° C.

COc1ccc2c(ccn2C[C@@H](C)N(C)C)c1.O=C(O)c1ccccc1 [Compound 1 · Benzoate]
Solubility [1, 4]: 28.74 mg/mL
Solubility [1, 5]: 26.85 mg/mL
Solubility [1, 6]: 26.33 mg/mL
Solubility [1, 7]: 25.59 mg/mL
Solubility ([1]; FaSSIF (ph 6.5), t = 1 h@37° C.): >30 mg/mL
Solubility ([1]; FaSSIF (ph 6.5), t = 3 h@37° C.): >30 mg/mL
Solubility ([1]; FaSSIF (ph 6.5), t = 6 h@37° C.): >30 mg/mL
Solubility ([1]; FaSSIF (ph 6.5), t = 24 h @37° C.): >30 mg/mL
Solubility ([1]; FeSSIF (ph 5.0), t = 1 h@37° C.): >30 mg/mL
Solubility ([1]; FeSSIF (ph 5.0), t = 3 h@37° C.): >30 mg/mL
Solubility ([1]; FeSSIF (ph 5.0), t = 6 h@37° C.): >30 mg/mL
Solubility ([1]; FeSSIF (ph 5.0), t = 24 h @37° C.): >30 mg/mL
XRPD (dried) [1, 4]: Benzoic acid
XRPD (wet) [1, 4]: Benzoic acid
XRPD (dried) [1, 5]: Benzoic acid
XRPD (wet) [1, 5]: Benzoic acid
XRPD (dried) [1, 6]: Benzoic
XRPD (wet) [1, 6]: Benzoic acid
XRPD (dried) [1, 7]: Benzoic
XRPD (wet) [1, 7]: Benzoic

COc1ccc2c(ccn2C[C@@H](C)N(C)C)c1.Cl [Compound 1 HCl (Form A)]
DVS 0 to 90 to 0% RH (dm/dt <0.002%) ([2]; 0.0% RH, sorption): DVS 0 to 90 to 0% RH (dm/dt <0.002%): 0.0 (0.00%), 5.0 (0.00%),
DVS 0 to 90 to 0% RH (dm/dt <0.002%) ([2]; 5.0% RH, desorption): 0.03%
DVS 0 to 90 to 0% RH (dm/dt <0.002%) ([2]; 5.0% RH, sorption): DVS 0 to 90 to 0% RH (dm/dt <0.002%): 0.0 (0.00%), 5.0 (0.00%),
DVS 0 to 90 to 0% RH (dm/dt <0.002%) ([2]; 10.0% RH, desorption): 0.04%
DVS 0 to 90 to 0% RH (dm/dt <0.002%) ([2]; 10.0% RH, sorption): 0.02%
DVS 0 to 90 to 0% RH (dm/dt <0.002%) ([2]; 15.0% RH, desorption): 0.05%
DVS 0 to 90 to 0% RH (dm/dt <0.002%) ([2]; 15.0% RH, sorption): 0.02%
DVS 0 to 90 to 0% RH (dm/dt <0.002%) ([2]; 20.0% RH, desorption): 0.06%
DVS 0 to 90 to 0% RH (dm/dt <0.002%) ([2]; 20.0% RH, sorption): 0.03%
DVS 0 to 90 to 0% RH (dm/dt <0.002%) ([2]; 25.0% RH, desorption): 0.07%
DVS 0 to 90 to 0% RH (dm/dt <0.002%) ([2]; 25.0% RH, sorption): 0.04%
DVS 0 to 90 to 0% RH (dm/dt <0.002%) ([2]; 30.0% RH, desorption): 0.09%
DVS 0 to 90 to 0% RH (dm/dt <0.002%) ([2]; 30.0% RH, sorption): 0.05%
DVS 0 to 90 to 0% RH (dm/dt <0.002%) ([2]; 40.0% RH, desorption): 0.10%
DVS 0 to 90 to 0% RH (dm/dt <0.002%) ([2]; 40.0% RH, sorption): 0.07%
DVS 0 to 90 to 0% RH (dm/dt <0.002%) ([2]; 50.0% RH, desorption): 0.14%
DVS 0 to 90 to 0% RH (dm/dt <0.002%) ([2]; 50.0% RH, sorption): 0.10%
DVS 0 to 90 to 0% RH (dm/dt <0.002%) ([2]; 60.0% RH, desorption): 0.17%
DVS 0 to 90 to 0% RH (dm/dt <0.002%) ([2]; 60.0% RH, sorption): 0.14%
DVS 0 to 90 to 0% RH (dm/dt <0.002%) ([2]; 70.0% RH, desorption): 0.22%
DVS 0 to 90 to 0% RH (dm/dt <0.002%) ([2]; 70.0% RH, sorption): 0.19%
DVS 0 to 90 to 0% RH (dm/dt <0.002%) ([2]; 80.0% RH, desorption): 0.29%
DVS 0 to 90 to 0% RH (dm/dt <0.002%) ([2]; 80.0% RH, sorption): 0.26%
DVS 0 to 90 to 0% RH (dm/dt <0.002%) ([2]; 90.0% RH, desorption): 0.46%
DVS 0 to 90 to 0% RH (dm/dt <0.002%) ([2]; 90.0% RH, sorption): 0.46%

COc1ccc2c(ccn2C[C@@H](C)N(C)C)c1.O=C(O)c1ccccc1 [Benzoate salt]
HPLC peak RRT 1.00 (reference peak) ([3]; salt before storage (t = 0)): 99.64
HPLC peak RRT 1.09 ([3]; salt before storage (t = 0)): 0.03
HPLC peak RRT 1.16 ([3]; salt before storage (t = 0)): 0.03
HPLC peak RRT 1.19 ([3]; salt before storage (t = 0)): 0.10
HPLC peak RRT 1.20 ([3]; salt before storage (t = 0)): 0.02
HPLC peak RRT 1.24 ([3]; salt before storage (t = 0)): 0.06
HPLC peak RRT 1.26 ([3]; salt before storage (t = 0)): 0.01
HPLC peak RRT 1.35 ([3]; salt before storage (t = 0)): 0.10
HPLC peak RRT 0.98 ([3]; t = 5 d at 75% RH at 40° C.): 0.04
HPLC peak RRT 1.00 (reference peak) ([3]; t = 5 d at 75% RH at 40° C.): 99.64
HPLC peak RRT 1.16 ([3]; t = 5 d at 75% RH at 40° C.): 0.03
HPLC peak RRT 1.19 ([3]; t = 5 d at 75% RH at 40° C.): 0.10
HPLC peak RRT 1.20 ([3]; t = 5 d at 75% RH at 40° C.): 0.02
HPLC peak RRT 1.26 ([3]; t = 5 d at 75% RH at 40° C.): 0.05
HPLC peak RRT 1.35 ([3]; t = 5 d at 75% RH at 40° C.): 0.11
HPLC peak RRT 0.98 ([3]; t = 10 d at 75% RH at 40° C.): 0.04
HPLC peak RRT 1.00 (reference peak) ([3]; t = 10 d at 75% RH at 40° C.): 99.52
HPLC peak RRT 1.08 ([3]; t = 10 d at 75% RH at 40° C.): 0.05
HPLC peak RRT 1.16 ([3]; t = 10 d at 75% RH at 40° C.): 0.04
HPLC peak RRT 1.19 ([3]; t = 10 d at 75% RH at 40° C.): 0.13
HPLC peak RRT 1.20 ([3]; t = 10 d at 75% RH at 40° C.): 0.02
HPLC peak RRT 1.26 ([3]; t = 10 d at 75% RH at 40° C.): 0.07
HPLC peak RRT 1.35 ([3]; t = 10 d at 75% RH at 40° C.): 0.12

COc1ccc2c(ccn2C[C@@H](C)N(C)C)c1.O=C(O)/C=C\C(=O)O [Maleate salt]
HPLC peak RRT 0.93 ([3]; salt before storage (t = 0)): 0.03
HPLC peak RRT 0.98 ([3]; salt before storage (t = 0)): 0.06
HPLC peak RRT 1.00 (reference peak) ([3]; salt before storage (t = 0)): 99.22
HPLC peak RRT 1.10 ([3]; salt before storage (t = 0)): 0.28
HPLC peak RRT 1.13 ([3]; salt before storage (t = 0)): 0.14
HPLC peak RRT 1.17 ([3]; salt before storage (t = 0)): 0.02
HPLC peak RRT 1.18 ([3]; salt before storage (t = 0)): 0.03
HPLC peak RRT 1.19 ([3]; salt before storage (t = 0)): 0.08
HPLC peak RRT 1.25 ([3]; salt before storage (t = 0)): 0.03
HPLC peak RRT 1.34 ([3]; salt before storage (t = 0)): 0.11
HPLC peak RRT 0.84 ([3]; t = 5 d at 75% RH at 40° C.): 0.31
HPLC peak RRT 0.93 ([3]; t = 5 d at 75% RH at 40° C.): 0.05
HPLC peak RRT 0.98 ([3]; t = 5 d at 75% RH at 40° C.): 0.03
HPLC peak RRT 1.00 (reference peak) ([3]; t = 5 d at 75% RH at 40° C.): 99.09
HPLC peak RRT 1.13 ([3]; t = 5 d at 75% RH at 40° C.): 0.21
HPLC peak RRT 1.19 ([3]; t = 5 d at 75% RH at 40° C.): 0.10
HPLC peak RRT 1.34 ([3]; t = 5 d at 75% RH at 40° C.): 0.22
HPLC peak RRT 0.84 ([3]; t = 10 d at 75% RH at 40° C.): 0.65
HPLC peak RRT 0.93 ([3]; t = 10 d at 75% RH at 40° C.): 0.06
HPLC peak RRT 0.98 ([3]; t = 10 d at 75% RH at 40° C.): 0.05
HPLC peak RRT 1.00 (reference peak) ([3]; t = 10 d at 75% RH at 40° C.): 98.30
HPLC peak RRT 1.13 ([3]; t = 10 d at 75% RH at 40° C.): 0.33
HPLC peak RRT 1.19 ([3]; t = 10 d at 75% RH at 40° C.): 0.09
HPLC peak RRT 1.22 ([3]; t = 10 d at 75% RH at 40° C.): 0.09
HPLC peak RRT 1.25 ([3]; t = 10 d at 75% RH at 40° C.): 0.02
HPLC peak RRT 1.26 ([3]; t = 10 d at 75% RH at 40° C.): 0.06
HPLC peak RRT 1.28 ([3]; t = 10 d at 75% RH at 40° C.): 0.05
HPLC peak RRT 1.32 ([3]; t = 10 d at 75% RH at 40° C.): 0.10
HPLC peak RRT 1.34 ([3]; t = 10 d at 75% RH at 40° C.): 0.19

Source: patent US12319652B2, “Salts and solid forms of (R)-1-(5-methoxy-1H-indol-1-yl)-N,N-dimethylpropan-2-amine” (priority 2021, dated 2025)
